Test results: patent US6645949B1, “Toxicity of boron compounds to certain arthropods” (University of Florida, priority 2000, dated 2003)
Values joined by “and” are separate entries in the source; they are usually repeats but may differ in a detail not shown here. Identical values can stand only once.

Test system: Diamond Back Moth (DBM; Plutella xylostella)
Experiment: Control of diamond back moth and inhibition of egg deposition, cage test with sugar pads
Type: in vivo
Settings: 4% in 10% sucrose
Description: On day one, six cages (24″ cube) were set up with five virgin DBM females and five virgin DBM males, one cabbage seedling, and one sugar pad (10% sucrose) in each cage. The sugar solution in three cages also contained 4% sodium tetraborate (4 g+96 ml, w:v water). The virgin adult DBM were obtained by isolating colony pupae individually in vials two days prior. The adults emerged one day prior to day one and on day one. They were provided a 10% sugar solution with or without sodium tetraborate, as soon as they emerged, by placing the vials with cloth bottoms on cotton pads.
The cages were placed in environmental rooms where the temperature was 25-26° C. and the day length was 14 hours.
Sugar pads were a single layer of rolled cotton approximately 8 cm square. Each pad was soaked in the appropriate solution, placed in the bottom of a petri dish (95×15 mm), and the excess water was pressed out. Each pad held about 30 ml of solution.
The cabbage seedlings were in Descn. No. 12 plastic pots. The surface of the soil was covered with a thin layer of Plaster of Paris.
On each of days two, three, four, five, and six, the sugar pads and plants were changed (once) between 1:00 p.m. and 5:00 p.m.

[1] = Day 7, cages 1-3, one cage per cell
[2] = Total of Days 2-7, cages 1-3, one cage per cell
[3] = Total of Days 2-7 and of 3 cages
[4] = relative to sugar control, Days 2-7

O=BOB(O)OB(O)OB=O [Sodium tetraborate, sodium tetraborate]
Percent Hatch, Average (Average of the 3 cages, Days 2-7): 66.4% | Number of Eggs, Average (Average per cage over Days 2-7): 354.7 | Number of Larvae, Average (Average per cage over Days 2-7): 235.3 | Number of Dead Females (Day 2, Total of 3 cages): 0 | Number of Dead Males (Day 2, Total of 3 cages): 0 | Number of Eggs (Day 2, Total of 3 cages): 202 | Number of Larvae (Day 2, Total of 3 cages): 99 | Percent Hatch (Day 2, Total): 44.8% | Number of Dead Females (Day 2, cages 1-3, five females per cage): 0 | Number of Dead Males (Day 2, cages 1-3, five males per cage): 0 | Percent Hatch (Day 2, cages 1-3, one cage per cell): 40.9% and 58.2% and 35.4% | Number of Dead Females (Day 3, Total of 3 cages): 1 | Number of Dead Males (Day 3, Total of 3 cages): 0 | Number of Eggs (Day 3, Total of 3 cages): 499 | Number of Larvae (Day 3, Total of 3 cages): 388 | Percent Hatch (Day 3, Total): 79.9% | Number of Dead Males (Day 3, cages 1-3, five males per cage): 0 | Percent Hatch (Day 3, cages 1-3, one cage per cell): 73.7% and 74.2% and 91.7% | Number of Dead Females (Day 4, Total of 3 cages): 1 | Number of Dead Males (Day 4, Total of 3 cages): 0 | Number of Eggs (Day 4, Total of 3 cages): 185 | Number of Larvae (Day 4, Total of 3 cages): 113 | Percent Hatch (Day 4, Total): 57.0% | Number of Dead Males (Day 4, cages 1-3, five males per cage): 0 | Percent Hatch (Day 4, cages 1-3, one cage per cell): 47.5% and 52.2% and 71.3% | Number of Dead Females (Day 5, Total of 3 cages): 1 | Number of Dead Males (Day 5, Total of 3 cages): 2 | Number of Eggs (Day 5, Total of 3 cages): 119 | Number of Larvae (Day 5, Total of 3 cages): 70 | Percent Hatch (Day 5, Total): 54.3% | Number of Dead Females (Day 6, Total of 3 cages): 3 | Number of Dead Males (Day 6, Total of 3 cages): 4 | Number of Eggs (Day 6, Total of 3 cages): 58 | Number of Larvae (Day 6, Total of 3 cages): 36 | Percent Hatch (Day 6, Total): 63.3% | Number of Dead Females (Day 6, cages 1-3, five females per cage): 1 | Number of Dead Females (Day 7, Total of 3 cages): 6 | Number of Dead Males (Day 7, Total of 3 cages): 4 | Number of Eggs (Day 7, Total of 3 cages): 1 | Number of Larvae (Day 7, Total of 3 cages): 0 | Number of Live Females (Day 7, Total of 3 cages): 2 | Number of Live Males (Day 7, Total of 3 cages): 2 | Percent Hatch (Day 7, Total): 0.0% | Number of Dead Males (Day 7, cages 1-3, five males per cage): 2 and 1 | Number of Larvae [1]: 0 | Percent Hatch [1]: 0.0% | Percent Hatch, Total (Days 2-7 together, cages 1-3, one cage per cell): 60.9% and 65.5% and 72.9% | Number of Eggs, Total [2]: 419 and 261 and 384 | Number of Larvae, Total [2]: 255 and 171 and 280 | Number of Eggs, Total [3]: 1064 | Number of Larvae, Total [3]: 706 | Number of Eggs, % of sugar [4]: 57.1% | Number of Larvae, % of sugar [4]: 64.2%
